Measured values from patent US10316017B2, “COT modulators and methods of use thereof” (Gilead Sciences, Inc., priority 2015, dated 2019).

Assays:
[1] = system: TNFα production in LPS-stimulated human monocytes; test: Cot Monocyte TNFα Cell Based Assay; settings: Homo sapiens, Monocyte, TNFα in LPS-stimulated human monocytes; read-out: EC50 TNF
Procedure, shortened: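 5,000 cells/well; cmpd 1 h, 37 °C, 0.5% DMSO final; LPS 50 pg/ml, 4 h, 37 °C; media TNFα by HTRF sandwich (cryptate/XL665), RT overnight; % control vs unstimulated/stimulated wells.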

[2] = target: T1, human Cot catalytic domain (30-397 amino acids) (Homo sapiens, UniProt P41279); test: High Throughput Cot Biochemical Assay (KinEASE TR-FRET); settings: Cot biochemical HTRF (KinEASE TR-FRET) assay; read-out: IC50 HTRF
T1 construct: Purified recombinant human Cot catalytic domain (30-397 amino acids) was purchased from Cama Biosciences; purchased Cama Biosciences (so in the source)
T1 sequence (P41279 30-397): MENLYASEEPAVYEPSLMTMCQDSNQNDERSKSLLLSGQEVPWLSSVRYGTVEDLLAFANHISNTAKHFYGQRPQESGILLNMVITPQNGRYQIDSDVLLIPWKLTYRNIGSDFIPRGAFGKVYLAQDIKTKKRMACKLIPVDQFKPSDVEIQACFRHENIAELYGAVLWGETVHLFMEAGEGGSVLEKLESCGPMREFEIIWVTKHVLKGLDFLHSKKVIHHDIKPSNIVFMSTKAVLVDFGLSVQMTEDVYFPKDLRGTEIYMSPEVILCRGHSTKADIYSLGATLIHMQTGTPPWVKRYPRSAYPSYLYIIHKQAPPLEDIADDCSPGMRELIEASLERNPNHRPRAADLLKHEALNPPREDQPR
Procedure, shortened: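 First, purified human Cot (aa 30-397) at 5 nM phosphorylates an XL665-labeled STK3 peptide (1 μM) at 400 μM ATP, pH 7.0, 0.1% DMSO. Then a europium-conjugated phospho-specific antibody binds the product, giving the TR-FRET signal.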

Row | Structure (SMILES) | EC50 [1] | IC50 [2]
1 | CC(C)Nc1c(C#N)cnc2c(Cl)cc(N[C@@H](c3ccc(Cl)cc3)c3cn(C4CCN(C(C)(C)C)CC4)nn3)cc12 [Example 682, (S)-6-(((1-(1-(tert-butyl)piperidin-4-yl)-1H-1,2,3-triazol-4-yl)(4-chlorophenyl)methyl)amino)-8-chloro-4-(isopropylamino)quinoline-3-carbonitrile] | 15.7 µM | 0.599 µM
2 | CCCCNc1c(C#N)cnc2c(Cl)cc(N[C@@H](c3ccc(Cl)cc3)c3cn(C4CCN(C(C)(C)C)CC4)nn3)cc12 [Example 683, (S)-6-(((1-(1-(tert-butyl)piperidin-4-yl)-1H-1,2,3-triazol-4-yl)(4-chlorophenyl)methyl)amino)-4-(butylamino)-8-chloroquinoline-3-carbonitrile] | 7.25 µM | 0.165 µM
3 | CN(C)Cc1ccc(Nc2c(C#N)cnc3c(Cl)cc(N[C@@H](c4ccc(Cl)cc4)c4cn(C5CCN(C(C)(C)C)CC5)nn4)cc23)cc1 [Example 684, (S)-6-(((1-(1-(tert-butyl)piperidin-4-yl)-1H-1,2,3-triazol-4-yl)(4-chlorophenyl)methyl)amino)-8-chloro-4-((4-((dimethylamino)methyl)phenyl)amino)quinoline-3-carbonitrile] | 6.04 µM | 7.35 µM
4 | N#Cc1cnc2c(Cl)cc(N[C@@H](c3ccccc3)c3cn([C@@H]4CCNC[C@@H]4F)nn3)cc2c1Nc1ccc(F)c(Cl)c1 [Example 685, 8-chloro-4-((3-chloro-4-fluorophenyl)amino)-6-(((S)-(1-((3S,4R)-3-fluoropiperidin-4-yl)-1H-1,2,3-triazol-4-yl)(phenyl)methyl)amino) quinoline-3-carbonitrile] | 0.359 µM | 0.016 µM
5 | CC(C)(C)N1CCC(n2cc([C@@H](Nc3cc(Cl)c4ncc(C#N)c(Nc5ccc6c(cnn6Cc6ccccc6)c5)c4c3)c3ccc(Cl)cc3)nn2)CC1 [Example 686, (S)-4-((1-benzyl-1H-indazol-5-yl)amino)-6-(((1-(1-(tert-butyl)piperidin-4-yl)-1H-1,2,3-triazol-4-yl)(4-chlorophenyl)methyl)amino)-8-chloroquinoline-3-carbonitrile] | 5.9 µM | 7.24 µM
6 | Cc1c(Cl)cccc1Nc1c(C#N)cnc2c(Cl)cc(N[C@@H](c3ccc(Cl)cc3)c3cn(C4CCN(C(C)(C)C)CC4)nn3)cc12 [Example 687, (S)-6-(((1-(1-(tert-butyl)piperidin-4-yl)-1H-1,2,3-triazol-4-yl)(4-chlorophenyl)methyl)amino)-8-chloro-4-((3-chloro-2-methylphenyl)amino)quinoline-3-carbonitrile] | 2.83 µM | 0.04 µM
7 | N#Cc1cnc2c(Cl)cc(N[C@@H](c3ccc(Cl)cc3)c3c[nH]nn3)cc2c1Nc1ccc(Cl)c(Cl)c1 [Example 688, (S)-8-chloro-6-(((4-chlorophenyl)(1H-1,2,3-triazol-4-yl)methyl)amino)-4-((3,4-dichlorophenyl)amino)quinoline-3-carbonitrile] | 1.25 µM | 0.621 µM
8 | CC(C)(C)N1CCC(n2cc([C@@H](Nc3cc(C#N)c4ncc(C#N)c(Nc5ccc(F)c(Cl)c5)c4c3)c3ccc(Cl)cc3)nn2)CC1 [Example 689, (S)-6-(((1-(1-(tert-butyl)piperidin-4-yl)-1H-1,2,3-triazol-4-yl)(4-chlorophenyl)methyl)amino)-4-((3-chloro-4-fluorophenyl)amino)quinoline-3,8-dicarbonitrile] | 0.343 µM | 0.011 µM
9 | CNC(=O)c1cccc([C@H](Nc2cc(Cl)c3ncc(C#N)c(Nc4ccc(F)c(Cl)c4)c3c2)c2cn(C3CCN(C(C)(C)C)CC3)nn2)c1 [Example 690, (S)-3-((1-(1-(tert-butyl)piperidin-4-yl)-1H-1,2,3-triazol-4-yl)((8-chloro-4-((3-chloro-4-fluorophenyl)amino)-3-cyanoquinolin-6-yl)amino)methyl)-N-methylbenzamide] | 0.317 µM | 0.002 µM
10 | CC(C)(C)N1CCC(n2cc([C@@H](Nc3cc(Cl)c4ncc(C#N)c(Nc5ccc(F)c(Cl)c5)c4c3)c3cccc(C(=O)N4CCCC4)c3)nn2)CC1 [Example 691, (S)-6-(((1-(1-(tert-butyl)piperidin-4-yl)-1H-1,2,3-triazol-4-yl)(3-(pyrrolidine-1-carbonyl)phenyl)methyl)amino)-8-chloro-4-((3-chloro-4-fluorophenyl)amino)quinoline-3-carbonitrile] | 0.09 µM | 0.002 µM

Next, values leading:

Row | EC50 [1] | IC50 [2] | Structure (SMILES)
11 | 0.797 µM | 0.051 µM | CC(C)(C)N1CCC(n2cc([C@@H](Nc3cc(Cl)c4ncc(C#N)c(Nc5cncc(Cl)c5)c4c3)c3ccc(Cl)cc3)nn2)CC1 [Example 692, (S)-6-(((1-(1-(tert-butyl)piperidin-4-yl)-1H-1,2,3-triazol-4-yl)(4-chlorophenyl)methyl)amino)-8-chloro-4-((5-chloropyridin-3-yl)amino)quinoline-3-carbonitrile]
12 | 1.54 µM | 0.046 µM | CC(C)(C)N1CCC(n2cc([C@@H](Nc3cc(Cl)c4ncc(C#N)c(Nc5cc(Cl)c(F)cc5F)c4c3)c3ccc(Cl)cc3)nn2)CC1 [Example 693, (S)-6-(((1-(1-(tert-butyl)piperidin-4-yl)-1H-1,2,3-triazol-4-yl)(4-chlorophenyl)methyl)amino)-8-chloro-4-((5-chloro-2,4-difluorophenyl)amino)quinoline-3-carbonitrile]
13 | 0.843 µM | 0.02 µM | CC(C)(C)N1CCC(n2cc([C@@H](Nc3cc(Cl)c4ncc(C#N)c(Nc5c(F)ccc(Cl)c5F)c4c3)c3ccc(Cl)cc3)nn2)CC1 [Example 694, (S)-6-(((1-(1-(tert-butyl)piperidin-4-yl)-1H-1,2,3-triazol-4-yl)(4-chlorophenyl)methyl)amino)-8-chloro-4-((3-chloro-2,6-difluorophenyl)amino)quinoline-3-carbonitrile]
14 | 0.434 µM | 0.019 µM | CC(C)(C)N1CCC(n2cc([C@@H](Nc3cc(Cl)c4ncc(C#N)c(Nc5ccc(F)c(Cl)c5F)c4c3)c3ccc(Cl)cc3)nn2)CC1 [Example 695, (S)-6-(((1-(1-(tert-butyl)piperidin-4-yl)-1H-1,2,3-triazol-4-yl)(4-chlorophenyl)methyl)amino)-8-chloro-4-((3-chloro-2,4-difluorophenyl)amino)quinoline-3-carbonitrile]
15 | 3.29 µM | 0.085 µM | CC(C)(C)N1CCC(n2cc([C@@H](Nc3cc(Cl)c4ncc(C#N)c(Nc5cc(F)cc(Cl)c5)c4c3)c3ccc(Cl)cc3)nn2)CC1 [Example 696, (S)-6-(((1-(1-(tert-butyl)piperidin-4-yl)-1H-1,2,3-triazol-4-yl)(4-chlorophenyl)methyl)amino)-8-chloro-4-((3-chloro-5-fluorophenyl)amino)quinoline-3-carbonitrile]
16 | 17.1 µM | > 10 µM | CC(Nc1c(C#N)cnc2c(Cl)cc(N[C@@H](c3ccc(Cl)cc3)c3cn(C4CCN(C(C)(C)C)CC4)nn3)cc12)c1ccccn1 (stereo partly drawn) [Example 697, 6-(((S)-(1-(1-(tert-butyl)piperidin-4-yl)-1H-1,2,3-triazol-4-yl)(4-chlorophenyl)methyl)amino)-8-chloro-4-((1-(pyridin-2-yl)ethyl)amino)quinoline-3-carbonitrile]
17 | 16.1 µM | 0.317 µM | CC(C)(C)N1CCC(n2cc([C@@H](Nc3cc(Cl)c4ncc(C#N)c(NCC5CC5)c4c3)c3ccc(Cl)cc3)nn2)CC1 [Example 698, (S)-6-(((1-(1-(tert-butyl)piperidin-4-yl)-1H-1,2,3-triazol-4-yl)(4-chlorophenyl)methyl)amino)-8-chloro-4-((cyclopropylmethyl)amino) quinoline-3-carbonitrile]
18 | 10.6 µM | 0.379 µM | CC(Nc1c(C#N)cnc2c(Cl)cc(N[C@@H](c3ccc(Cl)cc3)c3cn(C4CCN(C(C)(C)C)CC4)nn3)cc12)c1cccnc1 (stereo partly drawn) [Example 699, 6-(((S)-(1-(1-(tert-butyl)piperidin-4-yl)-1H-1,2,3-triazol-4-yl)(4-chlorophenyl)methyl)amino)-8-chloro-4-((1-(pyridin-3-yl)ethyl)amino)quinoline-3-carbonitrile]
19 | 2.24 µM | 0.444 µM | N#Cc1cnc2c(Cl)cc(N[C@@H](c3ccc(Cl)cc3)c3cn(C4CCN(C5COC5)CC4)nn3)cc2c1Nc1ccc(O)c(Cl)c1 [Example 700, (S)-8-chloro-4-((3-chloro-4-hydroxyphenyl)amino)-6-(((4-chlorophenyl)(1-(1-(oxetan-3-yl)piperidin-4-yl)-1H-1,2,3-triazol-4-yl)methyl)amino) quinoline-3-carbonitrile]
20 | 0.795 µM | 0.048 µM | CC(C)(C)N1CCC(n2cc([C@@H](Nc3cc(Cl)c4ncc(C#N)c(Nc5ccc(O)c(Cl)c5)c4c3)c3ccc(Cl)cc3)nn2)CC1 [Example 701, (S)-6-(((1-(1-(tert-butyl)piperidin-4-yl)-1H-1,2,3-triazol-4-yl)(4-chlorophenyl)methyl)amino)-8-chloro-4-((3-chloro-4-hydroxyphenyl)amino) quinoline-3-carbonitrile]
21 | 17.6 µM | 0.314 µM | CC(C)(C)N1CCC(n2cc([C@@H](Nc3cc(Cl)c4ncc(C#N)c(NC5CCC5)c4c3)c3ccc(Cl)cc3)nn2)CC1 [Example 702, (S)-6-(((1-(1-(tert-butyl)piperidin-4-yl)-1H-1,2,3-triazol-4-yl)(4-chlorophenyl)methyl)amino)-8-chloro-4-(cyclobutylamino)quinoline-3-carbonitrile]
